Reference: patent publication US20170275287A1, “NOVEL N2, N4, N7, 6-TETRASUBSTITUTED PTERIDINE-2,4,7-TRIAMINE AND 2, 4, 6, 7-TETRASUBSTITUTED PTERIDINE COMPOUNDS AND METHODS OF SYNTHESIS AND USE THEREOF” (Janus Biotherapeutics, Inc., priority 2014, published 2017)

Columns and labels:
Format in all cases: cell-based
TLR7 [1] = target: T1, TLR7 (Homo sapiens, UniProt Q9NYK1); assay: TLR7 antagonist assay in human PBMCs (ORN1075, IFNα ELISA); set-up: PBMCs were isolated from unpurified buffy coat from healthy human donors; host or cells: primary human PBMCs; settings: human PBMC, 0.5 μM ORN1075, IFNα readout
T1 sequence (Q9NYK1 27-1049): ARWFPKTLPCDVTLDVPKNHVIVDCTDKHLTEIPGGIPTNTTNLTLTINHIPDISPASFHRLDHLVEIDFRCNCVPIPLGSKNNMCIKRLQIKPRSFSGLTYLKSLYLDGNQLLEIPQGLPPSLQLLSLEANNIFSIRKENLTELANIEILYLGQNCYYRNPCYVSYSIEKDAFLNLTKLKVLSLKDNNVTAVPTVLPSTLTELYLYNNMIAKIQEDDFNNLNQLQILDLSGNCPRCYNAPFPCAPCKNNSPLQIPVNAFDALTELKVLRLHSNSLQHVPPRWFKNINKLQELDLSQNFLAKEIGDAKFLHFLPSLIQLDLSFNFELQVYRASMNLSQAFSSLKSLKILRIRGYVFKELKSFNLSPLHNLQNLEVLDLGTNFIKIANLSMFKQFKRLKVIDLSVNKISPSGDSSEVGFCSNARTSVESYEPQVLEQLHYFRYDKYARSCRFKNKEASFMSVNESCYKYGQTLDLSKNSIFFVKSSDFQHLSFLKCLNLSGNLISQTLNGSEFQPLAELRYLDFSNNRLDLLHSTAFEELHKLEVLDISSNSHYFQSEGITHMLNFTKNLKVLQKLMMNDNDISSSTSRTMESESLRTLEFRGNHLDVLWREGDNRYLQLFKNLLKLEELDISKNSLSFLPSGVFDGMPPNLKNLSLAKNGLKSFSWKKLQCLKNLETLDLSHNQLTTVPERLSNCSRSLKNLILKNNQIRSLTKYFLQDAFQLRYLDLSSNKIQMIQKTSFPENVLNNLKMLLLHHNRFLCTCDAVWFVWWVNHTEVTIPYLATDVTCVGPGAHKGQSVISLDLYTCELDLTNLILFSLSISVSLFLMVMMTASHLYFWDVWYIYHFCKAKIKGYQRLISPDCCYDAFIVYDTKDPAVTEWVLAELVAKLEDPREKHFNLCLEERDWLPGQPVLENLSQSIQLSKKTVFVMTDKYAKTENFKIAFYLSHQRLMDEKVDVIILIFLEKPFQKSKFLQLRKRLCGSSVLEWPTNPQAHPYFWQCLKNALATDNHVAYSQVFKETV
Procedure: PBMCs were isolated from unpurified buffy coat from healthy human donors (Blood Research Components, LLC). For antagonist testing, cells were plated on 96-well U-bottom plates at 3×10^6 cells/ml. Antagonist compounds were added to cells in duplicate wells and titrated from 10 μM in 1:3 serial dilutions (8 antagonist concentrations tested in total). After approximately 30 minutes, cells were stimulated with agonist compound (see table 2 for agonist concentrations). After stimulation, cells were incubated overnight at 37° C. To increase the stability of the ssRNA, 3 μg/ml DOTAP (Roche) was added to ORN1075 agonist solutions. All dilutions were made in RPMI-1640 media (Sigma, cat.# R7388)+5% human male AB sera (Sigma, cat.# H4522)+1× Penicillin/Streptomycin solution (VWR, cat.#82026-730).
TLR activity was measured in PBMCs and neutrophils by ELISA using cytokine readouts specific for the TLR of interest.
IFNα was measured as a readout for TLR7 and TLR9 activity in PBMCs stimulated with either ORN1075, or ODN2395, respectively, using a Human Pan-IFNα ELISA kit (MABTech, cat.#3425-1H-20). PBMC supernatant was diluted 1:3 in PBS+0.05% tween-20+0.1% BSA. Absorbance at 450 nm was recorded using a Molecular Devices SpectraMax340PC plate reader. The IC50 for each antagonist was subsequently calculated following the method described below.
Raw ELISA datasets for each 96-well plate, consisting of absorbance readings at […], were first imported in Microsoft Excel to calculate the average absorbance for each standard or antagonist concentration. The averaged data was then imported into SigmaPlot v.11.0 where a standard curve was calculated and used to extrapolate the relative concentration of TLR readout (TNFα, IFNα, etc.) produced. The dose-response curve of each antagonist was then plotted with SigmaPlot v.11.0 on a Log scale. Concentrations of TLR readout were converted to a percentage relative to the average maximum concentration for that ELISA plate in Microsoft Excel. The IC50 for each antagonist was then determined with the SigmaPlot regression wizard using a 4-parameter Hill equation. Each antagonist was tested in a minimum of 3 independent experiments and IC50 results were compiled and averaged using Microsoft Excel.

hepatocyte = assay: Hepatocyte viability assay (CEREP)
Procedure: See, Tables 4b and Scheme 18. The hepatocyte cell viability assays were performed by CEREP, Seattle, Wash., according to Mosmann, T., 1983, J. Immunol. Met. 65:55-62.

TLR7 [2] = target: T1, TLR7; assay: Antagonist/agonist competitive inhibition cross titration (TLR7 agonist JB6011); settings: antagonist 10 uM to 4 nM vs agonist 0.12-3.3 μM; preliminary, one assay
Procedure: In preliminary results (i.e., one assay result—repeat assays in process), a cross titration of antagonist versus agonist was performed to determine the form of antagonist binding. JB6121 was titrated from 10 uM to 4 nM against various concentrations of challenge agonist. The small molecule TLR7 agonist JB6011 was used. The graph below, while crude, implies that the inhibition of the TLR7 agonist by JB6121 is competitive in nature due to the parallel tracking of the curves as the agonist dose is increased. The agonist range for this experiment was between 0.12 and 3.3 μM or about a 30-fold range.

Row | SMILES | IC50 (TLR7 [1]) | % Hepatocyte viability 24 h at 50 μM (hepatocyte) | form of antagonist binding: inhibition of the TLR7 agonist JB6011 (TLR7 [2]) | % Hepatocyte viability 24 h at 100 μM (hepatocyte)
1 | CCCCNc1nc(NCCN2CCOCC2)c2nc(Cl)c(NCCN3CCOCC3)nc2n1 [JB6140] | 238 nM | 59% | comparable result | –
2 | CN1CCN(c2nc(NCCN3CCOCC3)c3ncc(-c4ccccc4)nc3n2)CC1 [JB6059] | 143 nM | – | – | 69%
3 | CN1CCN(c2nc(NCCN3CCOCC3)c3nc(Cl)c(NCCN4CCOCC4)nc3n2)CC1 [JB6121, 6-chloro-2-(4-methylpiperazin-1-yl)-N^4,N^7-bis(2-morpholinoethyl)pteridine-4,7-diamine] | 25 nM | – | competitive | 92%
4 | Clc1nc2c(NCCN3CCOCC3)nc(N3CCOCC3)nc2nc1NCCN1CCOCC1 [JB6147] | 223 nM | – | – | –
5 | C[C@@H]1CN(CCNc2nc3nc(N4CCN(C)CC4)nc(NCCN4C[C@@H](C)O[C@@H](C)C4)c3nc2Cl)C[C@H](C)O1 [JB6143] | 24 nM | 74% | – | –
6 | CCOc1nc2c(NCCN3CCOCC3)nc(NCc3ccccc3)nc2nc1NCCN1CCOCC1 [JB6180] | 502 nM | 13% | – | –
7 | CCOc1nc2c(NCCN3CCCC3)nc(-c3ccccc3)nc2nc1N1CCN(C)CC1 [JB6131] | 64 nM | – | – | 11%
8 | CCCCNc1nc(NCCN2CCOCC2)c2nc(SCC)c(NCCN3CCOCC3)nc2n1 [JB6185] | 74 nM | 0% | – | –
9 | COCCN1CCN(c2nc(NCCN3CCOCC3)c3nc(Cl)c(NCCN4CCOCC4)nc3n2)CC1 [JB6160] | 28 nM | 47% | – | –
10 | Clc1nc2c(NCCN3CCOCC3)nc(NCc3ccccc3)nc2nc1NCCN1CCOCC1 [JB6172] | 62 nM | 51% | – | –
11 | CN1CCN(c2nc3nc(-c4ccccc4)nc(NCCN4CCOCC4)c3nc2OCCN2CCOCC2)CC1 [JB6116] | 81 nM | – | – | 69%
